Numbered stars: 1 amine (or outer) side, 2 acyl side, 3 side chain; on linkers, the order of the positions; unused ones are H or OH. Bridge positions count the residues as written; N and C are the ends. Square brackets hold non-standard residues; d marks the D form. Peptide text beside a SMILES is read from it. * marks the point of attachment. Bip(4'-COOH) = N[C@@H](Cc1ccc(-c2ccc(C(=O)O)cc2)cc1)C(=O)O; Bip(4'-NHAc) = CC(=O)Nc1ccc(-c2ccc(C[C@H](N)C(=O)O)cc2)cc1; X1 = O=C(C[C@H](N[*:1])C(=O)[*:2])NS(=O)(=O)c1ccc(Cl)cc1F; X7 = O=C(C[C@H](N[*:1])C(=O)[*:2])NS(=O)(=O)c1ccccc1F; Phe(3-CF3) = N[C@@H](Cc1cccc(C(F)(F)F)c1)C(=O)O; Ala(morpholin-4-yl) = N[C@@H](CN1CCOCC1)C(=O)O; Phe(4-CONH2) = NC(=O)c1ccc(C[C@H](N)C(=O)O)cc1; Phe(4-COOH) = N[C@@H](Cc1ccc(C(=O)O)cc1)C(=O)O; Bip = N[C@@H](Cc1ccc(-c2ccccc2)cc1)C(=O)O; Phe(3-OMe) = COc1cccc(C[C@H](N)C(=O)O)c1; Phe(3-F) = N[C@@H](Cc1cccc(F)c1)C(=O)O; Phe(3-Me) = Cc1cccc(C[C@H](N)C(=O)O)c1; Val(3-OH) = CC(C)(O)[C@H](N)C(=O)O; X11 = CC(N)[C@H](N[*:1])C(=O)[*:2]; Cha = N[C@@H](CC1CCCCC1)C(=O)O; Carboxymethyl = O=C(O)C*; NMeA = CN[C@@H](C)C(=O)O; Nle = CCCC[C@H](N)C(=O)O; Orn = NCCC[C@H](N)C(=O)O; Dab = NCC[C@H](N)C(=O)O
Columns and labels:
[1] = molecular target: T1, PE-labeled human PD-L1-Ig binding to Jurkat cell line over-expressing human PD-1 (Jurkat-PD-1) (Homo sapiens, UniProt Q15116); assay: Jurkat-PD-1 Cell Binding High-Content Screening Assay (CBA): Method 2 (presence and absence of tween-20); conditions: Jurkat-PD-1 cells, PE-labeled PD-L1-Ig 20 nM, presence or absence of tween-20 not given
T1 construct: expressed in transfected cells; host or cells: Jurkat
Method: Jurkat-PD-1 Cell Binding High-Content Screening Assay (CBA): Method 2
Phycoerythrin (PE) was covalently linked to the Ig epitope tag of human PD-L1-Ig and fluorescently labeled PD-L1-Ig was used for binding studies with a Jurkat cell line over-expressing human PD-1 (Jurkat-PD-1). […] 100 nl of compound was added to cells followed by incubation at 37° C. for 2 hours. To interrogate potential issues with compound aggregation, compounds were tested in the presence and absence of tween-20 detergent. […] Then, 5 μl of PE-labeled PD-L1-Ig (20 nM final), diluted in DMEM supplemented with 10% fetal calf serum. […] Data was collected and processed using a Cell Insight NXT High Content Imager and associated software.

[2] = molecular target: T1, PE-labeled human PD-L1-Ig binding to Jurkat cell line over-expressing human PD-1 (Jurkat-PD-1); assay: Jurkat-PD-1 Cell Binding High-Content Screening Assay (CBA): Method 1; conditions: Jurkat-PD-1 cells, PE-labeled PD-L1-Ig
[3] = head μM, read-out: CBA Method 2 μM

T1 sequence (Q15116 25-288): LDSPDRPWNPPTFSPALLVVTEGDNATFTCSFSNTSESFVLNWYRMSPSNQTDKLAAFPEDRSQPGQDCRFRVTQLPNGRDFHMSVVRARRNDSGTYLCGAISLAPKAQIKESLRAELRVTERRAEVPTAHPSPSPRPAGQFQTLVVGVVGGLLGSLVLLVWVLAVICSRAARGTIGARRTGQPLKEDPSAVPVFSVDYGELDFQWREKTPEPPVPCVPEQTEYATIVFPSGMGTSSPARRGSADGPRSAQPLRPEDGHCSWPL

Structure (SMILES)	IC50 [1, 3]	IC50 ([2]; μM, read-out: CBA Method 1 μM)	IC50 ([1]; nM, read-out: CBA Method 2)	IC50 ([2]; nM, read-out: CBA Method 1)
Cc1cccc(C[C@@H]2NC(=O)[C@H](CC(=O)O)NC(=O)[C@H](Cc3ccc(C(=O)O)cc3)NC(=O)[C@H](CN3CCOCC3)NC(=O)CSC[C@@H](C(=O)N[C@@H](CCN)C(N)=O)NC(=O)[C@H](CCCN)NC(=O)[C@H](C(C)C)NC(=O)[C@H](Cc3cccc(F)c3)NC(=O)[C@H](CCN)NC(=O)[C@@H](CC(C)C)NC(=O)[C@H](C)N(C)C(=O)[C@H](CCC(N)=O)NC(=O)[C@H](Cc3ccc(-c4ccccc4)cc3)NC(=O)[C@H](Cc3ccc(-c4ccc(C(=O)O)cc4)cc3)NC2=O)c1 [Example 5060] ({CH2CO}-[Ala(morpholin-4-yl)][Phe(4-COOH)]D[Phe(3-Me)][Bip(4'-COOH)][Bip]Q[NMeA][dL][Dab][Phe(3-F)]V[Orn]C[Dab]-NH2; thioether N-14)	0.0093 µM	0.0068 µM		
CC(C)C[C@H]1NC(=O)[C@H](C)N(C)C(=O)[C@H](CCC(N)=O)NC(=O)[C@H](Cc2ccc(-c3ccccc3)cc2)NC(=O)[C@H](Cc2ccc(C(=O)O)cc2)NC(=O)[C@H](Cc2cccc(C(F)(F)F)c2)NC(=O)[C@H](CC(=O)NS(=O)(=O)c2ccccc2F)NC(=O)[C@H](Cc2ccc(C(=O)O)cc2)NC(=O)[C@H](CN2CCOCC2)NC(=O)CSC[C@@H](C(=O)N[C@@H](CCN)C(N)=O)NC(=O)[C@H](CCCN)NC(=O)[C@H](C(C)C)NC(=O)[C@H](CC2CCCCC2)NC(=O)[C@H](CCN)NC1=O [Example 5077] ({CH2CO}-[Ala(morpholin-4-yl)][Phe(4-COOH)][X7][Phe(3-CF3)][Phe(4-COOH)][Bip]Q[NMeA][dL][Dab][Cha]V[Orn]C[Dab]-NH2; thioether N-14)	0.338 µM	0.345 µM		
CCCC[C@@H]1NC(=O)CSC[C@@H](C(=O)N[C@@H](CCN)C(N)=O)NC(=O)[C@H](CO)NC(=O)[C@H](C(C)(C)O)NC(=O)[C@H](CC2CCCCC2)NC(=O)[C@H](CCN)NC(=O)[C@@H](CC(C)C)NC(=O)[C@H](C)N(C)C(=O)[C@H](Cc2ccc(C(N)=O)cc2)NC(=O)[C@H](Cc2ccc(-c3ccccc3)cc2)NC(=O)[C@H](Cc2ccc(-c3ccc(NC(C)=O)cc3)cc2)NC(=O)[C@H](Cc2cccc(C)c2)NC(=O)[C@H](CC(=O)O)NC(=O)[C@H](Cc2ccc(OCC(=O)O)cc2)NC1=O [Example 5069] ({CH2CO}-[Nle]Y(Carboxymethyl)D[Phe(3-Me)][Bip(4'-NHAc)][Bip][Phe(4-CONH2)][NMeA][dL][Dab][Cha][Val(3-OH)]SC[Dab]-NH2; thioether N-14)	0.0131 µM	0.0136 µM		
CC(=O)Nc1ccc(-c2ccc(C[C@@H]3NC(=O)[C@H](Cc4cccc(C(F)(F)F)c4)NC(=O)[C@H](CC(=O)O)NC(=O)[C@H](Cc4ccc(C(=O)O)cc4)NC(=O)[C@H](CC(C)C)NC(=O)CSC[C@@H](C(=O)N[C@@H](CCN)C(N)=O)NC(=O)[C@H](CCCN)NC(=O)[C@H](C(C)C)NC(=O)[C@H](CC4CCCCC4)NC(=O)[C@H](CCN)NC(=O)[C@@H](CC(C)C)NC(=O)[C@H](C)N(C)C(=O)[C@H](CCC(N)=O)NC(=O)[C@H](Cc4ccc(-c5ccccc5)cc4)NC3=O)cc2)cc1 [Example 5053] ({CH2CO}-L[Phe(4-COOH)]D[Phe(3-CF3)][Bip(4'-NHAc)][Bip]Q[NMeA][dL][Dab][Cha]V[Orn]C[Dab]-NH2; thioether N-14)	0.0074 µM	0.009 µM		
CC(=O)Nc1ccc(-c2ccc(C[C@@H]3NC(=O)[C@H](Cc4cccc(C(F)(F)F)c4)NC(=O)[C@H](CC(=O)O)NC(=O)[C@H](Cc4ccc(C(=O)O)cc4)NC(=O)[C@H](CN4CCOCC4)NC(=O)CSC[C@@H](C(=O)N[C@@H](CCN)C(N)=O)NC(=O)[C@H](CCCN)NC(=O)[C@H](C(C)C)NC(=O)[C@H](CC4CCCCC4)NC(=O)[C@H](CCN)NC(=O)[C@@H](CC(C)C)NC(=O)[C@H](C)N(C)C(=O)[C@H](CCC(N)=O)NC(=O)[C@H](Cc4ccc(-c5ccccc5)cc4)NC3=O)cc2)cc1 [Example 5047] ({CH2CO}-[Ala(morpholin-4-yl)][Phe(4-COOH)]D[Phe(3-CF3)][Bip(4'-NHAc)][Bip]Q[NMeA][dL][Dab][Cha]V[Orn]C[Dab]-NH2; thioether N-14)	0.0041 µM	0.0052 µM		

Next, values leading:

IC50 [1, 3]	IC50 ([2]; μM, read-out: CBA Method 1 μM)	IC50 ([1]; nM, read-out: CBA Method 2)	IC50 ([2]; nM, read-out: CBA Method 1)	Structure (SMILES)
		0.0099 µM	0.0055 µM	CC(C)C[C@H]1NC(=O)[C@H](C)N(C)C(=O)[C@H](CCCN)NC(=O)[C@H](Cc2ccc(-c3ccccc3)cc2)NC(=O)[C@H](Cc2ccc(-c3ccc(C(=O)O)cc3)cc2)NC(=O)[C@H](Cc2cccc(C(F)(F)F)c2)NC(=O)[C@H](CC(=O)O)NC(=O)[C@H](Cc2ccc(-c3ccc(C(=O)O)cc3)cc2)NC(=O)[C@H](Cc2ccc(OCC(=O)O)cc2)NC(=O)CSC[C@@H](C(=O)N[C@@H](CCN)C(N)=O)NC(=O)[C@H](CC(N)=O)NC(=O)[C@H](C(C)C)NC(=O)[C@H](CC2CCCCC2)NC(=O)[C@H](CCN)NC1=O [Example 5086] ({CH2CO}-Y(Carboxymethyl)[Bip(4'-COOH)]D[Phe(3-CF3)][Bip(4'-COOH)][Bip][Orn][NMeA][dL][Dab][Cha]VNC[Dab]-NH2; thioether N-14)
0.0028 µM	0.0304 µM			Cc1cccc(C[C@@H]2NC(=O)[C@H](CC(=O)O)NC(=O)[C@H](Cc3ccc(OCC(=O)O)cc3)NC(=O)[C@H](C(C)N)NC(=O)CSC[C@@H](C(=O)N[C@@H](CCN)C(N)=O)NC(=O)[C@H](CO)NC(=O)[C@H](C(C)(C)O)NC(=O)[C@H](CC3CCCCC3)NC(=O)[C@H](CCN)NC(=O)[C@@H](CC(C)C)NC(=O)[C@H](C)N(C)C(=O)[C@H](Cc3ccc(C(N)=O)cc3)NC(=O)[C@H](Cc3ccc(-c4ccccc4)cc3)NC(=O)[C@H](Cc3ccc(OCC(=O)O)cc3)NC2=O)c1 (stereo partly drawn) [Example 5066] ({CH2CO}-[X11]Y(Carboxymethyl)D[Phe(3-Me)]Y(Carboxymethyl)[Bip][Phe(4-CONH2)][NMeA][dL][Dab][Cha][Val(3-OH)]SC[Dab]-NH2; thioether N-14)
0.006 µM	0.0077 µM			CCCC[C@@H]1NC(=O)CSC[C@@H](C(=O)N[C@@H](CCN)C(N)=O)NC(=O)[C@H](CO)NC(=O)[C@H](C(C)(C)O)NC(=O)[C@H](CC2CCCCC2)NC(=O)[C@H](CCN)NC(=O)[C@@H](CC(C)C)NC(=O)[C@H](C)N(C)C(=O)[C@H](Cc2ccc(C(N)=O)cc2)NC(=O)[C@H](Cc2ccc(-c3ccccc3)cc2)NC(=O)[C@H](Cc2ccc(OCC(=O)O)cc2)NC(=O)[C@H](Cc2cccc(C)c2)NC(=O)[C@H](CC(=O)O)NC(=O)[C@H](Cc2ccc(OCC(=O)O)cc2)NC1=O [Example 5065] ({CH2CO}-[Nle]Y(Carboxymethyl)D[Phe(3-Me)]Y(Carboxymethyl)[Bip][Phe(4-CONH2)][NMeA][dL][Dab][Cha][Val(3-OH)]SC[Dab]-NH2; thioether N-14)
0.113 µM	0.173 µM			CC(C)C[C@H]1NC(=O)[C@H](C)N(C)C(=O)[C@H](CCC(N)=O)NC(=O)[C@H](Cc2ccc(-c3ccccc3)cc2)NC(=O)[C@H](Cc2ccc(C(=O)O)cc2)NC(=O)[C@H](Cc2cccc(C(F)(F)F)c2)NC(=O)[C@H](CC(=O)NS(=O)(=O)c2ccc(Cl)cc2F)NC(=O)[C@H](Cc2ccc(C(=O)O)cc2)NC(=O)[C@H](CN2CCOCC2)NC(=O)CSC[C@@H](C(=O)N[C@@H](CCN)C(N)=O)NC(=O)[C@H](CCCN)NC(=O)[C@H](C(C)C)NC(=O)[C@H](CC2CCCCC2)NC(=O)[C@H](CCN)NC1=O [Example 5081] ({CH2CO}-[Ala(morpholin-4-yl)][Phe(4-COOH)][X1][Phe(3-CF3)][Phe(4-COOH)][Bip]Q[NMeA][dL][Dab][Cha]V[Orn]C[Dab]-NH2; thioether N-14)
0.2 µM	0.09 µM			CCCC[C@@H]1NC(=O)CSC[C@@H](C(=O)N[C@@H](CCN)C(N)=O)NC(=O)[C@H](CCCN)NC(=O)[C@H](C(C)C)NC(=O)[C@H](CC2CCCCC2)NC(=O)[C@H](CCN)NC(=O)[C@@H](CC(C)C)NC(=O)[C@H](C)N(C)C(=O)[C@H](CCCN)NC(=O)[C@H](Cc2ccc(-c3ccccc3)cc2)NC(=O)[C@H](Cc2ccc(-c3ccc(C(=O)O)cc3)cc2)NC(=O)[C@H](Cc2cccc(C(F)(F)F)c2)NC(=O)[C@H](CC(=O)O)NC(=O)[C@H](Cc2ccc(-c3ccc(C(=O)O)cc3)cc2)NC1=O [Example 5088] ({CH2CO}-[Nle][Bip(4'-COOH)]D[Phe(3-CF3)][Bip(4'-COOH)][Bip][Orn][NMeA][dL][Dab][Cha]V[Orn]C[Dab]-NH2; thioether N-14)
0.0098 µM	0.0098 µM			COc1cccc(C[C@@H]2NC(=O)[C@H](CCN)NC(=O)[C@@H](CC(C)C)NC(=O)[C@H](C)N(C)C(=O)[C@H](CCC(N)=O)NC(=O)[C@H](Cc3ccc(-c4ccccc4)cc3)NC(=O)[C@H](Cc3ccc(C(=O)O)cc3)NC(=O)[C@H](Cc3cccc(C)c3)NC(=O)[C@H](CC(=O)O)NC(=O)[C@H](Cc3ccc(OCC(=O)O)cc3)NC(=O)[C@H](CN3CCOCC3)NC(=O)CSC[C@@H](C(=O)N[C@@H](CCN)C(N)=O)NC(=O)[C@H](CCCN)NC(=O)[C@H](C(C)C)NC2=O)c1 [Example 5043] ({CH2CO}-[Ala(morpholin-4-yl)]Y(Carboxymethyl)D[Phe(3-Me)][Phe(4-COOH)][Bip]Q[NMeA][dL][Dab][Phe(3-OMe)]V[Orn]C[Dab]-NH2; thioether N-14)

Reference: patent US20240409585A1, “MACROCYCLIC IMMUNOMODULATORS” (priority 2021, published 2024)
